For data set [1], the system named is mouse leukemia L1210 cells. The data set can be described thus: Growth inhibition test on cultured mouse leukemia L1210 cells. The class given is cell-based. The note with it: RPMI 1640 with 10% fetal calf serum. How it is done: Mouse leukemia L1210 cells were cultured in a RPMI 1640 medium containing 10% of fetal calf serum.
In data set [2] the test system is mouse leukemia L1210. The data set can be described thus: Antitumor activity test on mouse leukemia L1210 in vivo. The note with it: for max (T/C): L1210, average survival time treated/control ×100, i.p. once a day for 5 days; for Opt. dose: L1210, dose giving max (T/C); for Opt. dose / LD50: i.p. once a day for 5 days; for LD50: L1210-bearing CDF1 mice. How it is done: Mice of compound-non-treated group (control group) were administered with physiological saline solution in the same manner. The average survival times of the compound-treated group and the control group (abbreviated as T and C, respectively) were measured and T/C percentage (T/C×100) was calculated from the following equation. [formula]
In Table 4, max (T/C) means the maximum value of T/C and optimum dose (opt. dose) means an administration amount giving the max namely, an optimum administration amount.

Consider 28 compounds from US4921984A, “Novel platinum complexes” (Nippon Kayaku Kabushiki Kaisha, priority 1985, dated 1990).

As usually defined, the IC50 is the concentration needed to halve the response being measured. Low values mean greater potency, high ones weaker potency. Consider `CC(N)CCCN.O=C([O-])CC(=O)[O-].[Pt+2]` (stereo not drawn) [Compound No. 6, cis-Malonato-1-methyl-1,4-butanediamine platinum], for which, in data set [1], the IC50 was 0.76 µg/mL. Moreover, in data set [2], the “max (T/C)” value is recorded as 359% and the Opt. dose turned out to be 32 mg/kg.
In turn, `CCC(N)CCCN.O=C([O-])C1(C(=O)[O-])CCC1.[Pt+2]` [Compound No. 11, cis-Cyclobutane-1,1-dicarboxylato-1-ethyl-1,4-butanediamine platinum] yielded a Solubility in water greater than 3 mg/mL. For the same compound, the IC50 in data set [1] was 4.70 µg/mL. Besides, in data set [2], the “max (T/C)” value was determined as 139% and the Opt. dose worked out at 64 mg/kg.
Take `CC1(C)CC[NH2+][Pt-2]2([NH2+]C1)[O]C(=O)C1(CCOCC1)C(=O)[O]2` [Compound No. 23, cis-4-Oxacyclohexane-1,1-dicarboxylato-2,2-dimethyl-1,4-butanediamine platinum]: the Solubility in water is greater than 3 mg/mL. The compound further returned an IC50 in data set [1] of 0.44 µg/mL. Besides, in data set [2], the “max (T/C)” value is 159% and the Opt. dose is 32 mg/kg.
The compound `CC(N)CCCN.O=C([O-])C1(C(=O)[O-])CCC1.[Pt+2]` [Compound No. 7, cis-Cyclobutane-1,1-dicarboxylato-1-methyl-1,4-butanediamine platinum] returned a concentration for half-maximal inhibition (IC50) in data set [1] of 2.80 µg/mL. In data set [2], the “max (T/C)” value is listed as 176% and the Opt. dose stood at 64 mg/kg.
In data set [1], `CC1(C)CC[NH2+][Pt-2]2([NH2+]C1)[O]C(=O)CC(=O)[O]2` [Compound No. 21, cis-Malonato-2,2-dimethyl-1,4-butanediamine platinum] came in with an IC50 of 0.72 µg/mL. In data set [2], the “max (T/C)” value came out at 301% and the Opt. dose worked out at 32 mg/kg.
In data set [1], `CC1CC[NH2+][Pt-2]2([NH2+]C1)[O]C(=O)C(C)(C)C(=O)[O]2` (racemic) [Compound No. 17, cis-Dimethylmalonato-2-methyl-1,4-butanediamine platinum] gave an IC50 of 0.50 µg/mL. Besides, in data set [2], the “max (T/C)” value worked out at 238% and the Opt. dose is given as 32 mg/kg.
In general, LD50 refers to the dose at which mortality reaches 50%. A higher LD50 goes with a less toxic substance. Regarding `CCC1C(=O)[O][Pt-2]2([NH2+]CCCC(C)[NH2+]2)[O]C1=O` (racemic) [Compound No. 9, cis-Ethylmalonato-1-methyl-1,4-butanediamine platinum], the Solubility in water was greater than 10 mg/mL. The same compound returned an IC50 in data set [1] of 2.40 µg/mL. In data set [2], the “max (T/C)” value is given as 222%, the Opt. dose is 64 mg/kg and the median lethal dose (LD50) was determined as 96.0 mg/kg.
In data set [1], `O=C1[O][Pt-2]2([NH2+]CCCC[NH2+]2)[O]C(=O)C12CCC2` [Compound No. 2, cis-Cyclobutane-1,1-dicarboxylato-1,4-butanediamine Platinum] displayed a 50% inhibitory concentration (IC50) of 0.88 µg/mL. In data set [2], the “max (T/C)” value stood at 182%, the Opt. dose is reported as 32 mg/kg and the LD50 came to 48.0 mg/kg.
Turning to `CC1(C)CCC[NH2+][Pt-2]([Cl])([Cl])[NH2+]1` [Compound No. 25, cis-Dichloro-1,1-dimethyl-1,4-butanediamine platinum], the “Solubility in physiological saline solution” value is given as greater than 2 mg/ml. The compound further yielded an IC50 in data set [1] of 0.25 µg/mL. Also, in data set [2], the “max (T/C)” value stood at 150%, the Opt. dose is on record as 2 mg/kg and the LD50 is recorded as 3.0 mg/kg.
Take `CC(C)(CN)CCN.O=C([O-])C1(C(=O)[O-])CCC1.[Pt+2]` [Compound No. 22, cis-Cyclobutane-1,1-dicarboxylato-2,2-dimethyl-1,4-butanediamine platinum]: the Solubility in water is greater than 3 mg/mL. In data set [1], this compound returned an IC50 of 2.20 µg/mL. In addition, in data set [2], the “max (T/C)” value was 320% and the Opt. dose was 128 mg/kg.
In turn, `CC1CC[NH2+][Pt-2]2([NH2+]C1)[O]C(=O)CC(=O)[O]2` (racemic) [Compound No. 14, cis-Malonato-2-methyl-1,4-butanediamine platinum] gave a 50% inhibitory concentration (IC50) in data set [1] of 0.74 µg/mL. Further, in data set [2], the “max (T/C)” value was found to be 346% and the Opt. dose came out at 32 mg/kg.
Turning to `CC1CC[NH2+][Pt-2]([Cl])([Cl])[NH2+]C1` (racemic) [Compound No. 13, cis-Dichloro-2-methyl-1,4-butanediamine platinum], the “Solubility in physiological saline solution” value is recorded as greater than 2 mg/ml. The compound further came in with an IC50 in data set [1] of 0.10 µg/mL. In addition, in data set [2], the “max (T/C)” value amounted to 187%, the Opt. dose is 2 mg/kg and the LD50 is given as 4.2 mg/kg.
In data set [1], `CC1CCC[NH2+][Pt-2]2([NH2+]1)[O]C(=O)C(C)(C)C(=O)[O]2` (racemic) [Compound No. 8, cis-Dimethylmalonato-1-methyl-1,4-butanediamine platinum] had an IC50 of 0.90 µg/mL. Further, in data set [2], the “max (T/C)” value is recorded as 189% and the Opt. dose is listed as 64 mg/kg.
In data set [1], `CC(C)(C(=O)[O-])C(=O)[O-].CC(C)(N)CCCN.[Pt+2]` [Compound No. 28, cis-Dimethylmalonato-1,1-dimethyl-1,4-butanediamine platinum] displayed a concentration for half-maximal inhibition (IC50) of 4.50 µg/mL.
Turning to `CCC(N)CCCN.O=C([O-])C1(C(=O)[O-])CCOCC1.[Pt+2]` [Compound No. 12, cis-4-Oxacyclohexane-1,1-dicarboxylato-1-ethyl-1,4-butanediamine platinum], the IC50 in data set [1] was 1.05 µg/mL. Besides, in data set [2], the “max (T/C)” value was 181% and the Opt. dose was determined as 64 mg/kg.
In data set [1], `CC1(C)CC[NH2+][Pt-2]2([NH2+]C1)[O]C(=O)C(=O)[O]2` [Compound No. 20, cis-Oxalato-2,2-dimethyl-1,4-butanediamine platinum] had an IC50 of 0.37 µg/mL. Moreover, in data set [2], the “max (T/C)” value is 272% and the Opt. dose is given as 8 mg/kg.
In turn, `CC1(C)CC[NH2+][Pt-2]2([NH2+]C1)[O]C(=O)C(C)(C)C(=O)[O]2` [Compound No. 24, cis-Dimethylmalonato-2,2-dimethyl-1,4-butanediamine platinum] returned an IC50 in data set [1] of 0.78 µg/mL. Besides, in data set [2], the “max (T/C)” value was found to be 253% and the Opt. dose came out at 64 mg/kg.
On to `CC1CCC[NH2+][Pt-2]([Cl])([Cl])[NH2+]1` (racemic) [Compound No. 4], for which the “Solubility in physiological saline solution” value was greater than 2 mg/ml. This compound also displayed an IC50 in data set [1] of 0.20 µg/mL. Also, in data set [2], the “max (T/C)” value is 225%, the Opt. dose worked out at 2 mg/kg and the median lethal dose (LD50) stood at 2.4 mg/kg.
In the case of `CCC1C(=O)[O][Pt-2]2([NH2+]CCC(C)C[NH2+]2)[O]C1=O` (racemic) [Compound No. 18, cis-Ethylmalonato-2-methyl-1,4-butanediamine platinum], the Solubility in water is greater than 10 mg/mL. Also, the concentration for half-maximal inhibition (IC50) in data set [1] came to 0.84 µg/mL. In data set [2], the “max (T/C)” value is recorded as 264%, the Opt. dose was 16 mg/kg and the median lethal dose (LD50) is 24.0 mg/kg.
As for `CC1(C)CC[NH2+][Pt-2]([Cl])([Cl])[NH2+]C1` [Compound No. 19, cis-Dichloro-2,2-dimethyl-1,4-butanediamine platinum], the “Solubility in physiological saline solution” value is greater than 2 mg/ml. The IC50 in data set [1] is 0.20 µg/mL. For the same compound, in data set [2], the “max (T/C)” value amounted to 359%, the Opt. dose worked out at 4 mg/kg and the LD50 turned out to be 6.0 mg/kg.
With `CCC1CC[NH2+][Pt-2]([Cl])([Cl])[NH2+]C1` (racemic) [Compound No. 29, cis-Dichloro-2-ethyl-1,4-butanediamine platinum], the “Solubility in physiological saline solution” value is recorded as greater than 2 mg/ml. Also, the half-maximal inhibitory concentration (IC50) in data set [1] turned out to be 0.05 µg/mL. Also, in data set [2], the “max (T/C)” value came out at 261%, the Opt. dose is 2 mg/kg and the LD50 came to 3.0 mg/kg.
For `CCC(CN)CCN.O=C([O-])CC(=O)[O-].[Pt+2]` (stereo not drawn) [Compound No. 31, cis-Malonato-2-ethyl-1,4-butanediamine platinum], the IC50 in data set [1] came to 0.66 µg/mL.
The compound `CCC1CC[NH2+][Pt-2]2([NH2+]C1)[O]C(=O)C(=O)[O]2` (racemic) [Compound No. 30, cis-Oxalato-2-ethyl-1,4-butanediamine platinum] gave an IC50 in data set [1] of 0.06 µg/mL. Moreover, in data set [2], the “max (T/C)” value is given as 253% and the Opt. dose was 8 mg/kg.
`CCC(CN)CCN.O=C([O-])C1(C(=O)[O-])CCC1.[Pt+2]` [Compound No. 32, cis-Cyclobutane-1,1-dicarboxylato-2-ethyl-1,4-butanediamine platinum]: the IC50 in data set [1] was 0.67 µg/mL. In data set [2], the “max (T/C)” value turned out to be 275% and the Opt. dose is given as 32 mg/kg.
In data set [1], `CCC1CC[NH2+][Pt-2]2([NH2+]C1)[O]C(=O)C(C)(C)C(=O)[O]2` (racemic) [Compound No. 33, cis-Dimethylmalonato-2-ethyl-1,4-butanediamine platinum] yielded an IC50 of 0.23 µg/mL.
With `CC1(C)CCC[NH2+][Pt-2]2([NH2+]1)[O]C(=O)C(=O)[O]2` [Compound No. 26, cis-Oxalato-1,1-dimethyl-1,4-butanediamine platinum], the IC50 in data set [1] was determined as 0.30 µg/mL.
`CC1(C)CCC[NH2+][Pt-2]2([NH2+]1)[O]C(=O)C1(CCC1)C(=O)[O]2` [Compound No. 27, cis-Cyclobutane-1,1-dicarboxylato-1,1-dimethyl-1,4-butanediamine platinum] yielded a Solubility in water greater than 10 mg/mL.
Regarding `CC(N)CCCN.O=C([O-])C(=O)[O-].[Pt+2]` (stereo not drawn) [Compound No. 5, cis-Oxalato-1-methyl-1,4-butanediamine platinum], the IC50 in data set [1] was determined as 0.29 µg/mL. Besides, in data set [2], the “max (T/C)” value worked out at 273% and the Opt. dose stood at 4 mg/kg.
